Laboratory results: the supplement of paper PMC10307832

Experiments:
Assay in all cases: relative viability (nuclei count vs DMSO), 5 days (fraction); higher = more cells survive
[1] = tested on: NCI-H2023
How it was run: (§1)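 Dosing by pin tool came one day after lung cancer cell lines were seeded in 1536-well plates, using either one drug or a fixed anchor-drug dose plus five library-drug doses (not always all listed) in √10 steps. After 5 days, nuclei were counted on 4× images. Relative viability is treated-well nuclei count divided by vehicle-well nuclei count, and values are medians of duplicate plates.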

[2] = tested on: NCI-H2405
How it was run: as §1

[3] = tested on: NCI-H2170
How it was run: as §1

[4] = tested on: NCI-H1734
How it was run: as §1

[5] = tested on: NCI-H647
How it was run: as §1

[6] = tested on: LOU-NH91
How it was run: as §1

[7] = tested on: EPLC-272H
How it was run: as §1

[8] = tested on: SW 900
How it was run: as §1

[9] = tested on: PC-14
How it was run: as §1

[10] = tested on: NCI-H1793
How it was run: as §1

[11] = tested on: NCI-H2347
How it was run: as §1

[12] = tested on: NCI-H441
How it was run: as §1

[13] = tested on: HCC-15
How it was run: as §1

[14] = tested on: NCI-H3122
How it was run: as §1

[15] = tested on: COR-L23
How it was run: as §1

[16] = tested on: NCI-H322M
How it was run: as §1

[17] = tested on: H3255
How it was run: as §1

[18] = tested on: UMC-11
How it was run: as §1

[19] = tested on: NCI-H520
How it was run: as §1

[20] = tested on: NCI-H1650
How it was run: as §1

[21] = tested on: 201T
How it was run: as §1

Structure (SMILES): O=c1cc(-c2cccc3c2Sc2ccccc2S3)oc(N2CCOCC2)c1 + Cc1cc(Nc2cc(N3CCN(C)CC3)nc(Sc3ccc(NC(=O)C4CC4)cc3)n2)n[nH]1 [Tozasertib] (partner 0.1 µM)
- relative viability ([1]; first compound 0.08 µM): 0.309
- relative viability ([1]; first compound 0.253 µM): 0.295
- relative viability ([1]; first compound 0.8 µM): 0.302
- relative viability ([1]; first compound 2.53 µM): 0.216
- relative viability ([1]; first compound 8 µM): 0.247
- relative viability ([2]; first compound 0.08 µM): 0.667
- relative viability ([2]; first compound 0.253 µM): 0.752
- relative viability ([2]; first compound 0.8 µM): 0.72
- relative viability ([2]; first compound 2.53 µM): 0.638
- relative viability ([2]; first compound 8 µM): 0.681
- relative viability ([3]; first compound 0.08 µM): 0.78
- relative viability ([3]; first compound 0.253 µM): 0.739
- relative viability ([3]; first compound 0.8 µM): 0.894
- relative viability ([3]; first compound 2.53 µM): 0.715
- relative viability ([3]; first compound 8 µM): 0.676
- relative viability ([4]; first compound 0.08 µM): 0.271
- relative viability ([4]; first compound 0.253 µM): 0.261
- relative viability ([4]; first compound 0.8 µM): 0.265
- relative viability ([4]; first compound 8 µM): 0.26
- relative viability ([5]; first compound 0.08 µM): 0.325
- relative viability ([5]; first compound 0.253 µM): 0.0459
- relative viability ([5]; first compound 0.8 µM): 0.224
- relative viability ([5]; first compound 2.53 µM): 0.171
- relative viability ([5]; first compound 8 µM): 0.462
- relative viability ([6]; first compound 0.08 µM): 0.652
- relative viability ([6]; first compound 0.253 µM): 0.678
- relative viability ([6]; first compound 0.8 µM): 0.638
- relative viability ([6]; first compound 2.53 µM): 0.568
- relative viability ([6]; first compound 8 µM): 0.679
- relative viability ([7]; first compound 0.08 µM): 0.238
- relative viability ([7]; first compound 0.253 µM): 0.193
- relative viability ([7]; first compound 0.8 µM): 0.299
- relative viability ([7]; first compound 2.53 µM): 0.237
- relative viability ([7]; first compound 8 µM): 0.236
- relative viability ([8]; first compound 0.08 µM): 0.754
- relative viability ([8]; first compound 0.253 µM): 0.543
- relative viability ([8]; first compound 0.8 µM): 0.433
- relative viability ([8]; first compound 2.53 µM): 0.486
- relative viability ([8]; first compound 8 µM): 0.5
- relative viability ([9]; first compound 0.08 µM): 0.594
- relative viability ([9]; first compound 0.253 µM): 0.572
- relative viability ([9]; first compound 0.8 µM): 0.548
- relative viability ([9]; first compound 8 µM): 0.554
- relative viability ([10]; first compound 0.08 µM): 0.362
- relative viability ([10]; first compound 0.253 µM): 0.38
- relative viability ([10]; first compound 0.8 µM): 0.325
- relative viability ([10]; first compound 2.53 µM): 0.228
- relative viability ([10]; first compound 8 µM): 0.245
- relative viability ([11]; first compound 0.08 µM): 0.668
- relative viability ([11]; first compound 0.253 µM): 0.605
- relative viability ([11]; first compound 0.8 µM): 0.351
- relative viability ([11]; first compound 2.53 µM): 0.53
- relative viability ([11]; first compound 8 µM): 0.404
- relative viability ([12]; first compound 0.08 µM): 0.686
- relative viability ([12]; first compound 0.253 µM): 0.693
- relative viability ([12]; first compound 0.8 µM): 0.793
- relative viability ([12]; first compound 2.53 µM): 0.598
- relative viability ([12]; first compound 8 µM): 0.632
- relative viability ([13]; first compound 0.08 µM): 0.437
- relative viability ([13]; first compound 0.253 µM): 0.428
- relative viability ([13]; first compound 0.8 µM): 0.504
- relative viability ([13]; first compound 2.53 µM): 0.39
- relative viability ([13]; first compound 8 µM): 0.307
- relative viability ([14]; first compound 0.08 µM): 0.488
- relative viability ([14]; first compound 0.253 µM): 0.404
- relative viability ([14]; first compound 0.8 µM): 0.355
- relative viability ([14]; first compound 2.53 µM): 0.424
- relative viability ([14]; first compound 8 µM): 0.479
- relative viability ([15]; first compound 0.08 µM): 0.202
- relative viability ([15]; first compound 0.253 µM): 0.202
- relative viability ([15]; first compound 0.8 µM): 0.188
- relative viability ([15]; first compound 2.53 µM): 0.148
- relative viability ([15]; first compound 8 µM): 0.172
- relative viability ([16]; first compound 0.08 µM): 0.494
- relative viability ([16]; first compound 0.253 µM): 0.446
- relative viability ([16]; first compound 0.8 µM): 0.464
- relative viability ([16]; first compound 2.53 µM): 0.449
- relative viability ([16]; first compound 8 µM): 0.467
- relative viability ([17]; first compound 0.08 µM): 0.441
- relative viability ([17]; first compound 0.253 µM): 0.604
- relative viability ([17]; first compound 0.8 µM): 0.759
- relative viability ([17]; first compound 2.53 µM): 0.686
- relative viability ([17]; first compound 8 µM): 0.867
- relative viability ([18]; first compound 0.08 µM): 0.198
- relative viability ([18]; first compound 0.253 µM): 0.19
- relative viability ([18]; first compound 0.8 µM): 0.189
- relative viability ([18]; first compound 2.53 µM): 0.202
- relative viability ([18]; first compound 8 µM): 0.234
- relative viability ([19]; first compound 0.08 µM): 0.383
- relative viability ([19]; first compound 0.253 µM): 0.375
- relative viability ([19]; first compound 0.8 µM): 0.502
- relative viability ([19]; first compound 2.53 µM): 0.472
- relative viability ([19]; first compound 8 µM): 0.421
- relative viability ([20]; first compound 0.08 µM): 0.471
- relative viability ([20]; first compound 0.253 µM): 0.458
- relative viability ([20]; first compound 0.8 µM): 0.392
- relative viability ([20]; first compound 2.53 µM): 0.294
- relative viability ([20]; first compound 8 µM): 0.326
- relative viability ([21]; first compound 0.08 µM): 0.945
- relative viability ([21]; first compound 0.253 µM): 0.982
- relative viability ([21]; first compound 0.8 µM): 1.04
- relative viability ([21]; first compound 2.53 µM): 0.923
- relative viability ([21]; first compound 8 µM): 0.753
